Assay results taken from patent US5456908A, “Polyamine-polyamine and polyamine-protein transport inhibitor conjugates and their use as pharmaceuticals and in research relating to polyamine transport” (priority 1994, dated 1995).
Like-named read-outs stand apart in the source and are kept apart here.

Key:
DX5 human cancer cells = experiment: Cellular polyamine content by HPLC, DX5; format: cell-based; conditions: DFMO 1 mM, Poly-SPM 20 μM
Protocol: (§1) To determine if the cytotoxicity and inhibition of polyamine transport evoked by the polyamine conjugates was,associated with depletion of cell polyamine contents, additional experiments were conducted which used HPLC to measure contents of PUT, SPD, and SPM in human uterine sarcoma and leukemia cells in the presence of poly-SPM, DFMO, and combined treatment with poly-SPM and DFMO. The latter combination was tested to determine if blockade of both transport and synthesis would promote greater decreases in polyamine content than either intervention alone. […] Further studies are planned to obtain further information regarding interactions between these pathways and their suitabilities as pharmacologic targets.

[1] = system: MES-SA human cancer cells; experiment: Cellular polyamine content by HPLC, MES-SA; format: cell-based; conditions: DFMO 1 mM, Poly-SPM 20 μM
Protocol: as §1

[2] = system: MES-SA human uterine sarcoma cells; experiment: MTT cytotoxicity assay, MES-SA
Protocol: (§4) Cytotoxicity was assessed using the MTT assay in MES-SA and DX5 uterine sarcoma cell lines after a 24 hours exposure to ascending concentrations of the putrescine polymeric conjugates (poly-PUT conjugates) or its vehicle.
(§5) Complimentary experiments were conducted to determine whether the polyamine uptake inhibitors differentially affected the cytotoxicity and cellular uptake of vinblastine in MDR-negative and MDR-positive uterine sarcoma cells. […] The MTT assay was used to quantify the IC50 for vinblastine cytotoxicity in MES-SA and DX5 cells in the presence and absence of treatment with 100 μM poly-PUT. The calculation of cytotoxicity in these experiments accounted for the lethality associated with use of the conjugate alone.

[3] = system: K567 Human leukemia cells; experiment: Cytotoxicity, K567 leukemia cells; conditions: DFMO at 1 mM concentration; printed K562
[4] = system: non-mutant polyamine transport L1210 cells; conditions: DFMO treatment; Ask et al.; cited from earlier work
[5] = system: K562/R7 human cancer cells; experiment: Cellular polyamine content by HPLC, K562/R7; format: cell-based; conditions: DFMO 1 mM, Poly-SPM 20 μM
Protocol: as §1

K562 human cancer cells = experiment: Cellular polyamine content by HPLC, K562; format: cell-based; conditions: DFMO 1 mM, Poly-SPM 20 μM
Protocol: as §1

[6] = system: L1210-MGBGr leukemic cell line deficient in polyamine transport; conditions: polyamine synthesis blocked by DFMO; Ask et al.; cited from earlier work
[7] = system: DX5 human uterine sarcoma cells (MDR-positive); experiment: 14C-polyamine uptake, DX5; format: cell-based; conditions: DFMO (1 mM), 24 hours
Protocol: (§2) Additional studies were conducted to determine whether MES-SA and DX5 cell lines express a polyamine transport system, and, if so, whether this system(s) was inhibited by the poly-PUT and poly-SPM conjugate. […] In the current studies, ^14 C-SPD was added in concentrations of 3 μM and cells were incubated for 30 minutes at selected temperatures (4° and 37° C). The cells were rinsed with Hanks buffer, digested for 1 hour in 1N NaOH, and cell-associated radioactivity was determined. ^14 C-SPD uptake rate was normalized to protein content. Specific, carrier-mediated polyamine uptake was […] determined at […].
(§3) In many cells, DFMO increases polyamine transport. This is believed to be a compensatory mechanism that protects these cells from polyamine depletion. […] We therefore examined the impact of DFMO on polyamine transport rate and on vinblastine accumulation and cytotoxicity in MES-SA and DX5 cells.

[8] = system: DX5 human uterine sarcoma cells (MDR-positive); experiment: MTT cytotoxicity assay, DX5; conditions: for IC50: Homo sapiens
Protocol: as §4, §5

[9] = system: cultured pulmonary artery smooth muscle cells; experiment: Hypoxia-induced fibronectin synthesis; format: cell-based, bovine
Text: This experiment was effected because hypoxic pulmonary hypertension is accompanied by the deposition of large quantities of fibronectin around pulmonary arteries. Therefore, there is some belief by researchers, including the present inventors, that the increased deposition of this protein may be an important cause of the sustained elevation in pulmonary arterial blood pressure. Also, hypoxia seems to cause pulmonary hypertension by a mechanism related to increased polyamine transport rather than increased de novo polyamine synthesis.

[10] = system: DX5 human uterine sarcoma cells (MDR-positive); experiment: Cellular content of MDR substrates (vinblastine, Taxol), DX5; format: cell-based; conditions: DFMO (1 mM)
Protocol: Complimentary experiments were conducted to determine whether the polyamine uptake inhibitors differentially affected the cytotoxicity and cellular uptake of vinblastine in MDR-negative and MDR-positive uterine sarcoma cells.

[11] = system: MES-SA human uterine sarcoma cells; experiment: Cellular content of MDR substrates (vinblastine, Taxol), MES-SA; format: cell-based; conditions: DFMO (1 mM)
[12] = system: MES-SA human uterine sarcoma cells; experiment: 14C-polyamine uptake, MES-SA; format: cell-based; conditions: DFMO (1 mM), 24 hours
Protocol: as §2, §3

[13] = system: cultured pulmonary artery smooth muscle cells treated with DFMO; experiment: 14C-polyamine uptake in DFMO-treated pulmonary artery smooth muscle cells; conditions: Bos taurus, 24 h, read-out: increase of polyamine uptake relative to control cells
Protocol: DFMO treatment consisted of the addition of 1 mM of DFMO to the cultures followed by a 24 hour incubation period.
After DFMO treatment and incubation, the respective conjugates were added in amounts ranging from about 0 to 20 μM simultaneously with 3 μM of a specific ^14 C-polyamine and the cells allowed to incubate for 30 minutes. After incubation, the content of cell associated radioactivity was determined.

[14] = system: R7 cells (MDR-positive variant of K567); experiment: Cytotoxicity, R7 leukemia cells; conditions: DFMO at 1 mM concentration; MDR-positive variant of K562
[15] = system: DX5 human uterine sarcoma cells (MDR-positive)
Protocol: as §4, §5

[16] = system: MES-SA human uterine sarcoma cells
Protocol: as §4, §5

[17] = system: cultured pulmonary artery smooth muscle cells; experiment: 14C-polyamine uptake in cultured pulmonary artery smooth muscle cells; format: cell-based, bovine
Protocol: After this 30 minute period the cell-associated radioactivity was then measured to determine the uptake of polyamine by the cell culture.
Cell associated radioactivity was then measured.

[18] = conjugate 0-20 μM with 3 μM 14C-polyamine, 30 minutes

Compound: NCCCC(N)(C(=O)O)C(F)F (stereo not drawn) [DFMO, α-difluoro-methylornithine]
- Cellular Polyamine Content, SPD (DX5 human cancer cells): 4191 pmoles/mg protein
- Cellular Polyamine Content, SPM (DX5 human cancer cells): 6831 pmoles/mg protein
- Cellular Polyamine Content, SPD [1]: 6100 pmoles/mg protein
- Cellular Polyamine Content, SPM [1]: 8824 pmoles/mg protein
- toxicity to cells ([2]; DFMO at 1 mM concentration): not toxic
- effect of DFMO treatment on the IC50 value for vinblastine ([2]; DFMO treatment): failed to affect
- toxicity to cells [3]: not toxic
- increase in survival time [4]: two
- Cellular Polyamine Content, SPD [5]: 15809 pmoles/mg protein
- Cellular Polyamine Content, SPM [5]: 15083 pmoles/mg protein
- Cellular Polyamine Content, SPD (K562 human cancer cells): 15791 pmoles/mg protein
- Cellular Polyamine Content, SPM (K562 human cancer cells): 17024 pmoles/mg protein
- cure rate [6]: 33%
- 14C-Polyamine uptake, PUT [7]: 1.1 ± 0.04 pmoles/min/mg protein
- 14C-Polyamine uptake, SPD [7]: 1.6 ± .08 pmoles/min/mg protein
- toxicity to cells ([8]; DFMO at 1 mM concentration, MDR-positive variant of MES-SA): not toxic
- effect of DFMO treatment on sensitivity to vinblastine ([8]; DFMO treatment, vinblastine concentrations up to 5 μM): complete resistance
- Fibronectin Synthesis ([9]; Hypoxic): 0.09 OD/mg protein
- Fibronectin Synthesis ([9]; Normoxic): 0.07 OD/mg protein
- 3H-Vinblastine Content [10]: 195 ± 8 pmoles/mg protein
- 3H-Vinblastine Content [11]: 840 ± 28 pmoles/mg protein
- 14C-Polyamine uptake, PUT [12]: 0.67 ± 0.01 pmoles/min/mg protein
- 14C-Polyamine uptake, SPD [12]: 7.3 ± .06 pmoles/min/mg protein
- activation at 1000 µM [13]: ~350%
- toxicity to cells [14]: not toxic

Compound: CC[C@]1(O)C[C@@H]2CN(CCc3c([nH]c4ccccc34)[C@@](C(=O)OC)(c3cc4c(cc3OC)N(C)[C@H]3[C@@](O)(C(=O)OC)[C@H](OC(C)=O)[C@]5(CC)C=CCN6CC[C@]43[C@@H]65)C2)C1 [Vinblastine]
- IC50 ([2]; Homo sapiens, MES-SA, read-out: IC50, vinblastine cytotoxicity): 5 nM
- IC50 ([8]; read-out: IC50, vinblastine cytotoxicity): 600 nM
- IC50 ([8]; read-out: IC50 for vinblastine): 500 nM
- IC50 [15]: 116 nM
- IC50 [16]: 7 nM

Compound: COc1ccc(CCN(C)CCCC(C#N)(c2ccc(OC)c(OC)c2)C(C)C)cc1OC (stereo not drawn) [verapamil]
- suppression of polyamine transport ([17]; agents known to inhibit the MDR, data not shown, 30 min): 50-75%

Compound: Spd-BSA: conjugate between bovine serum albumin and spermidine using glutaraldehyde as a coupling agent
- uptake of 14C-putrescine [17, 18]: inhibited
- uptake of 14C-spermidine [17, 18]: inhibited
